Source: patent US20200181089A1, “4-ANILINO-QUINOLINE COMPOUNDS AS ANTI-CANCER AGENTS” (INSERM (INSTITUT NATIONAL DE LA SANTÉ ET DE LA RECHERCHE …, priority 2016, published 2020)
Where two headings read alike, the source gives them in different places.

Experiments:
EZH2 transcription = assay: Ability to decrease EZH2 mRNA level in A375 (dose-response, quantitative PCR); type: cell-based; conditions: Homo sapiens, A-375, 96 h; A375 cells, incubated 4 days; read-out: IC50 (concentration necessary to obtain 50% of EZH2 transcription activity)
Method: Typically, 30000-50000 cells were plated in six-well culture plates and incubated 24 h later with increasing concentration of NIK inhibitors or vehicle. Cells were incubated with the inhibitors for 4 days prior to harvesting for RNA extraction and PCR. Total RNA was isolated from cells using the RNAeasy minikit (Qiagen) according to the manufacturer's procedure. Reverse transcription was performed using the AMV reverse transcription system (Promega), and quantitative PCR was performed with Power Sybr green (Applied Biosystems, Life Technologies, Grand Island, N.Y.) following the manufacturer's instructions. The PCR was carried out on a Step One plus Real-Time PCR system (Applied Biosystems). All analyses were done in triplicate, and a melting curve analysis was performed to control for product quality and specificity. Expression levels were calculated using the comparative method of relative quantification, with SB34 as a normalizer. The data were analyzed for statistical significance using Student's t-test. The results are presented as the mean±SEM relative to the control. Primers were obtained from primer bank or primer depot (http://pga.mgh.harvard.edu/primerbank/, https://primerdepot.nci.nih.gov), and their specificity was verified using primer blast (http://www.ncbi.nlm.nih.gov/tools/primer-blast/).
Here IC50 represents the concentration necessary to obtain 50% of EZH2 transcription activity.

A375 cells = assay: A375 cell proliferation assay (trypan blue exclusion); type: cell-based; conditions: Homo sapiens, A-375, treated/untreated cell number; for activity at 1 µM: A375, 1 μM; for activity at 10 µM: A375, 10 μM
Method: Cells were counted using a Malassez chamber. The average and standard deviation were calculated from triplicate experiments. Antiproliferative effects were evaluated by trypan blue exclusion assay. Briefly, cells were seeded into 12-well plate and grown in media supplemented with indicated compound at 1 or 10 μM for 48 h or 96 h. Cells were washed with PBS and detached by trypsinization, collected and colored by trypan blue. Dead and living cells were counted and proliferation was calculated as follow: Proliferation (%)=[(treated cell number/untreated cells number)*100].

normal human fibroblast = assay: Fibroblast viability assay (trypan blue exclusion); type: cell-based; conditions: 96 h
Method: (§1) Cell viability effects were evaluated by trypan blue exclusion assay. Briefly, cells were seeded into 12-well plate and grown in media supplemented with indicated compound at 10 μM for 96 h. Cells were washed with PBS and detached by trypsinization, collected and colored by trypan blue. Dead and living cells were counted and cell viability was calculated as follow: Viability (%)=100−[(dead cell number/total cells)*100].

normal human melanocyte = assay: Melanocyte viability assay (trypan blue exclusion); type: cell-based; conditions: 96 h
Method: as §1

[1] = test system: normal human melanocytes or fibroblasts; assay: Proliferation of normal human melanocytes or fibroblasts; type: cell-based
B16 melanoma cells = assay: Established subcutaneous B16 melanoma in C57Bl6 mice; type: in vivo
Method: FIG. 3. Compound 5 treatment is effective when used alone in reducing tumor growth in vivo and potentiates the anti-PD1 immune response in C57Bl6 mice subcutaneously injected with B16 melanoma cells. B16 cells were injected subcutaneously and the tumors were let to grow until an average volume of 100 mm^3 was reached. The mice were then sorted into four groups with similar average tumor volume and standard deviation. Treatment with compound 5 (10 mg/kg) or control (DMSO) was given by intraperitoneal injection every day. Anti-PD1 antibodies (125 μg/mouse) was given every other day alone or combined with daily injection of compound 5. Number of mice for each treatment group=8.
(§2) 0.5×10^6 cells in 100 μL PBS were subcutaneously injected into 4-week-old female C57Bl/6 mice (for the B16 experiment) or Balb/c mice (for the CT26 experiments). DZNEP is an inhibitor of the catalytic activity of EZH2 and was used as an additional control.
The inventors then asked whether compound 5 was able to increase the survival rate of mice with already established tumor and, if that was the case, also in this situation was able to synergize with anti-PD1 treatment. They thus decided to use the model B16 melanoma cells in C57Bl6 mice. B16 cells were again injected subcutaneously and the tumors were let to grow until an average volume of 100 mm3 was reached. […]

[2] = Tolerability in treated CT26 tumor-bearing mice; type: in vivo; conditions: 10 mg/kg intraperitoneal
Method: In order to evaluate the new approach in different types of cancer, compound 5 was tested in colorectal cancer cells. CT26 cells were subcutaneously injected into syngeneic mice. After 3 days, the mice were treated intraperitoneally with DZNEP, compound 5, and anti-PD1 as monotherapies and combined. Additional treatments in which the mice received DZNEP or compound 5 plus anti-PD1 with an anti-CD8 antibody added to neutralize the T-cell response were included. […] Signs of tumor regression and tumor-free mice were even observed. […] The number of M1 macrophages and the percentage of M1 macrophages among the total macrophage population were increased in all the treated mice, especially in the mice that received the combination treatments (FIG. 2C). Each of the treatments increased the numbers and activation of DCs and the numbers of CD8+ and CD4+ cells infiltrating the tumors (FIG. 2D). […] Finally, CD3+ T-cells were isolated by negative selection from the spleens of the treated mice and cocultured with naïve CT26 cells.

CT26 colon-cancer cells = assay: Subcutaneous CT26 colon-cancer tumors in Balb/c mice; type: in vivo; conditions: compound 5 10 mg/kg, DZNEP 1 mg/kg, FIG. 2A
Method: A. Tumor progression in Balb/c mice subcutaneously injected with CT26 cells (0.5×10^6). After 3 days, treatment with compound 5 (10 mg/kg) or DMSO was given by intraperitoneal injection every other day starting 3 days after the first injection. Two groups of mice (with either DMSO or compound 5 treatment) were treated with anti-PD1 antibody injected subcutaneously every other day. Number of mice for each treatment group=10.
as §2
1 mg/kg DZNEP and 10 mg/kg compound 5 were used for the subsequent experiments. Tridimensional measurements were performed daily, and the tumor volume was expressed as mm^3. […] The T-cells were stained with CD8, perforin, and granzyme B antibodies and analyzed immediately by flow cytometry using a MACS-Quant Analyzer (Miltenyi Biotec, Paris, France).
Tumors were extracted and disaggregated using […] strainers. […] FoxP3 was detected by cell intranuclear staining employing the BD Pharmingen™ Mouse Foxp3 Buffer Set according to the manufacturer's instructions. IFN-γ, perforin, and granzyme B were detected by intracellular staining using the BD Cytofix/Cytoperm™ Kit following the manufacturer's instructions. […]

CT26 cells = assay: Spleen CD3+ T-cells of treated mice cocultured with naïve CT26 cells; type: in vivo; conditions: coculture 24 or 48 h
Method: 1 mg/kg DZNEP and 10 mg/kg compound 5 were used for the subsequent experiments. Tridimensional measurements were performed daily, and the tumor volume was expressed as mm^3. […] Freshly collected tumors were dissociated and stained for immune-cell infiltrate using a flow cytometer. CD3+ T cells from spleen tissue were negatively selected using myltennyi magnetic columns and put in contact with naïve CT26 cells for 24 or 48 h. The CT26 cells were subsequently stained with DAPI (0.5 μg/ml, Molecular Probes, Grand Island, N.Y., USA). The T-cells were stained with CD8, perforin, and granzyme B antibodies and analyzed immediately by flow cytometry using a MACS-Quant Analyzer (Miltenyi Biotec, Paris, France).
Spleens were extracted and disaggregated, and the cells were resuspended in PBS. T-cells were isolated by CD3 negative selection to avoid activation. […] The flow-through containing the enriched fraction of CD3 cells was collected and analyzed by flow cytometry to determine the yield of the enrichment (CD3 cells constituted a minimum 70% of the total cells collected).

SMILES | IC50 (EZH2 transcription) [µM] | activity at 1 µM (A375 cells; 48 h, read-out: Proliferation (%) At 1 μM - 48 H) [%] | activity at 1 µM (A375 cells; 96 h, read-out: Proliferation (%) At 1 μM - 96 H) [%] | activity at 10 µM (A375 cells; 48 h, read-out: Proliferation (%) At 10 μM - 48 H) [%] | activity at 10 µM (A375 cells; 96 h, read-out: Proliferation (%) At 10 μM - 96 H) [%] | Viability (%) at 10 μM Fibroblast (normal human fibroblast) [%] | Viability (%) at 10 μM Melanocyte (normal human melanocyte) [%] | proliferation of normal human melanocytes or fibroblasts [1] | death dependent from treatment (B16 melanoma cells; B16 experiment) | median survival (B16 melanoma cells; days from injection, treatment started at tumor volume 100 mm3, control 13 days) [days] | clinical signs of toxicity [2] | liver enzymes in the blood [2] | liver weight and systemic glycemia compared to the other mice [2] | growth of the CT26 tumors (CT26 colon-cancer cells) | killing of naïve CT26 cells by T-cells isolated from treated mice (CT26 cells)
COc1ccc(Nc2ccnc3cc(Cl)ccc23)cc1 [Compound 5, 4-((4-methoxyphenyl)amino)-7-chloroquinolinium chloride] | 5 | 91 | 77.1 | 67.5 | 58.1 | 98.6 | 99.5 | Neither treatment had any effect | no death dependent from compound 5 treatment was observed | 20 | no clinical signs of toxicity | remained in the normal range | similar | – | –
Nc1nccc2c1ncn2C1C=C(CO)C(O)C1O (stereo not drawn) [DZNEP] | – | – | – | – | – | – | – | – | – | – | – | – | – | significantly reduced | more effective in killing CT26 cells
